Target: T1, JAK3: Recombinant human kinase domain (Homo sapiens, UniProt P52333)
T1 construct: JAK3: Recombinant human kinase domain from Millipore (Cat #14-629) or prepared; purchased Millipore 14-629
Assay: Determination of IC50 of Janus Kinase (JAK) inhibition, radioactive end-point 33P-ATP assay, JAK3
Type: biochemical
Settings: ATP 1.5 uM, peptide 50 uM, 20 minutes, read-out: JAK3-INHIB-DR/v1~NO ADDITIVE~Enzyme_Conc = 100

T1 sequence (P52333 822-1111 limits assumed): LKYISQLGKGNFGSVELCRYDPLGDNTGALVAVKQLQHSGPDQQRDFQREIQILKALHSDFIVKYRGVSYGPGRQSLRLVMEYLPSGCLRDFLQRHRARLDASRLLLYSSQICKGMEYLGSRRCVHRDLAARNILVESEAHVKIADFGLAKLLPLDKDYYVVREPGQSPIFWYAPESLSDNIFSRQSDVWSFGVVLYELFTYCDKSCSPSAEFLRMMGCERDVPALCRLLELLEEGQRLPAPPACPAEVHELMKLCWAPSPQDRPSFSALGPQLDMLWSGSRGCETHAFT

Structure (SMILES) | IC50 [nM]
C[C@@H](NC(=O)c1c[nH]c2ncc(-c3nn(CCO)c4cc(Cl)ccc34)nc12)C(=O)N1CC(C#N)C1 [Example I-90, 2-[6-Chloro-1-(2-hydroxy-ethyl)-1H-indazol-3-yl]-5H-pyrrolo[2,3-b]pyrazine-7-carboxylic acid [(R)-2-(3-cyano-azetidin-1-yl)-1-methyl-2-oxo-ethyl]-amide] | 3.83
CCCn1nc(-c2cnc3[nH]cc(C(=O)N[C@H](C)C(=O)N4CC(C#N)C4)c3n2)c2ccc(Cl)cc21 [Example I-92, 2-(6-Chloro-1-propyl-1H-indazol-3-yl)-5H-pyrrolo[2,3-b]pyrazine-7-carboxylic acid [(R)-2-(3-cyano-azetidin-1-yl)-1-methyl-2-oxo-ethyl]-amide] | 2.08
C[C@@H](NC(=O)c1c[nH]c2ncc(-c3nn(CC#N)c4cc(Cl)ccc34)nc12)C(=O)N1CC(C#N)C1 [Example I-93, 2-(6-Chloro-1-cyanomethyl-1H-indazol-3-yl)-5H-pyrrolo[2,3-b]pyrazine-7-carboxylic acid [(R)-2-(3-cyano-azetidin-1-yl)-1-methyl-2-oxo-ethyl]-amide] | 0.775
CC(O)Cn1nc(-c2cnc3[nH]cc(C(=O)N[C@H](C)C(=O)N4CC(C#N)C4)c3n2)c2ccc(Cl)cc21 (stereo partly drawn) [Example I-95, 2-[6-Chloro-1-(2-hydroxy-propyl)-1H-indazol-3-yl]-5H-pyrrolo[2,3-b]pyrazine-7-carboxylic acid [(R)-2-(3-cyano-azetidin-1-yl)-1-methyl-2-oxo-ethyl]-amide] | 4.83
C[C@@H](NC(=O)c1c[nH]c2ncc(-c3nn(CCCO)c4cc(Cl)ccc34)nc12)C(=O)N1CC(C#N)C1 [Example I-96, 2-[6-Chloro-1-(3-hydroxy-propyl)-1H-indazol-3-yl]-5H-pyrrolo[2,3-b]pyrazine-7-carboxylic acid [(R)-2-(3-cyano-azetidin-1-yl)-1-methyl-2-oxo-ethyl]-amide] | 5.39
C[C@@H](NC(=O)c1c[nH]c2ncc(-c3nn(C)c4cc(Cl)cc(Cl)c34)nc12)C(=O)N1CC(C#N)C1 [Example I-97, 2-(4,6-Dichloro-1-methyl-1H-indazol-3-yl)-5H-pyrrolo[2,3-b]pyrazine-7-carboxylic acid [(R)-2-(3-cyano-azetidin-1-yl)-1-methyl-2-oxo-ethyl]-amide] | 57.1
C[C@@H](NC(=O)c1c[nH]c2ncc(-c3nn(C)c4cccnc34)nc12)C(=O)N1CC(C#N)C1 [Example I-98, 2-(1-Methyl-1H-pyrazolo[4,3-b]pyridin-3-yl)-5H-pyrrolo[2,3-b]pyrazine-7-carboxylic acid [(R)-2-(3-cyano-azetidin-1-yl)-1-methyl-2-oxo-ethyl]-amide] | 6.78
C[C@@H](NC(=O)c1c[nH]c2ncc(-c3nn(C)c4cc(F)ccc34)nc12)C1(C#N)CCCC1 [Example I-100, 2-(6-Fluoro-1-methyl-1H-indazol-3-yl)-5H-pyrrolo[2,3-b]pyrazine-7-carboxylic acid [(R)-1-(1-cyano-cyclopentyl)-ethyl]-amide] | 156
C[C@H](CS(C)(=O)=O)NC(=O)c1c[nH]c2ncc(-c3nn(C)c4cc(Cl)ccc34)nc12 [Example I-105, 2-(6-Chloro-1-methyl-1H-indazol-3-yl)-5H-pyrrolo[2,3-b]pyrazine-7-carboxylic acid ((R)-2-methanesulfonyl-1-methyl-ethyl)-amide] | 54.4
CCNC(=O)c1c[nH]c2ncc(-c3nn(C)c4cc(Cl)ccc34)nc12 [Example I-109, 2-(6-Chloro-1-methyl-1H-indazol-3-yl)-5H-pyrrolo[2,3-b]pyrazine-7-carboxylic acid ethylamide] | 44.3
C[C@@H](NC(=O)c1c[nH]c2ncc(-c3nn(C)c4cc(Cl)ccc34)nc12)C(=O)N1CC[C@@H](F)C1 [Example I-119, 2-(6-Chloro-1-methyl-1H-indazol-3-yl)-5H-pyrrolo[2,3-b]pyrazine-7-carboxylic acid [(R)-2-((R)-3-fluoro-pyrrolidin-1-yl)-methyl-2-oxo-ethyl]-amide] | 3.64
C[C@@H](NC(=O)c1c[nH]c2ncc(-c3nn(C)c4cc(Cl)ccc34)nc12)C(=O)N1CC(F)C1 [Example I-120, 2-(6-Chloro-1-methyl-1H-indazol-3-yl)-5H-pyrrolo[2,3-b]pyrazine-7-carboxylic acid [(R)-2-(3-fluoro-azetidin-1-yl)-1-methyl-2-oxo-ethyl)-amide] | 2.73
C[C@H](CN1CC(C#N)C1)NC(=O)c1c[nH]c2ncc(-c3nn(C)c4cc(Cl)ccc34)nc12 [Example I-126, 2-(6-Chloro-1-methyl-1H-indazol-3-yl)-5H-pyrrolo[2,3-b]pyrazine-7-carboxylic acid [(R)-2-(3-cyano-azetidin-1-yl)-1-methyl-ethyl]-amide] | 18.3
CO[C@@H](C)CNC(=O)c1c[nH]c2ncc(-c3nn(C)c4cc(F)ccc34)nc12 [Example I-135, 2-(6-Fluoro-1-methyl-1H-indazol-3-yl)-5H-pyrrolo[2,3-b]pyrazine-7-carboxylic acid ((S)-2-methoxy-propyl)-amide] | 6.9
C[C@@H](C#N)CNC(=O)c1c[nH]c2ncc(-c3nn(C)c4cc(F)ccc34)nc12 [Example I-136, 2-(6-Fluoro-1-methyl-1H-indazol-3-yl)-5H-pyrrolo[2,3-b]pyrazine-7-carboxylic acid ((R)-2-cyano-2-methyl-ethyl)-amide] | 176
C[C@H](NC(=O)c1c[nH]c2ncc(-c3nn(C)c4cc(Cl)cc(F)c34)nc12)C1CC1 [Example I-141, 2-(6-Chloro-4-fluoro-1-methyl-1H-indazol-3-yl)-5H-pyrrolo[2,3-b]pyrazine-7-carboxylic acid ((S)-1-cyclopropyl-ethyl)-amide] | 3.77
Cn1nc(-c2cnc3[nH]cc(C(=O)NC4CCCC(=O)C4)c3n2)c2ccc(Cl)cc21 (centres unmarked) [Example I-147, 2-(6-Chloro-1-methyl-1H-indazol-3-yl)-5H-pyrrolo[2,3-b]pyrazine-7-carboxylic acid (3-oxo-cyclohexyl)-amide] | 38.4
COCC(C)NC(=O)c1c[nH]c2ncc(-c3nn(C)c4cc(Cl)ccc34)nc12 (centres unmarked) [Example I-152, 2-(6-Chloro-1-methyl-1H-indazol-3-yl)-5H-pyrrolo[2,3-b]pyrazine-7-carboxylic acid (2-methoxy-1-methyl-ethyl)-amide] | 1.15
CC1CCCCC1NC(=O)c1c[nH]c2ncc(-c3nn(C)c4cc(Cl)ccc34)nc12 (centres unmarked) [Example I-153, 2-(6-Chloro-1-methyl-1H-indazol-3-yl)-5H-pyrrolo[2,3-b]pyrazine-7-carboxylic acid (2-methyl-cyclohexyl)-amide] | 4.02

Continued, values first:

IC50 [nM] | Structure (SMILES)
3.13 | CC(C)n1nc(-c2cnc3[nH]cc(C(=O)N[C@H](C)C(=O)N4CC(C#N)C4)c3n2)c2ccc(Cl)cc21 [Example I-91, 2-(6-Chloro-1-isopropyl-1H-indazol-3-yl)-5H-pyrrolo[2,3-b]pyrazine-7-carboxylic acid [(R)-2-(3-cyano-azetidin-1-yl)-1-methyl-2-oxo-ethyl)-amide]
12.6 | C[C@@H](NC(=O)c1c[nH]c2ncc(-c3nn(CC(O)CO)c4cc(Cl)ccc34)nc12)C(=O)N1CC(C#N)C1 (stereo partly drawn) [Example I-94, 2-[6-Chloro-1-(2,3-dihydroxy-propyl)-1H-indazol-3-yl]-5H-pyrrolo[2,3-b]pyrazine-7-carboxylic acid [(R)-2-(3-cyano-azetidin-1-yl)-1-methyl-2-oxo-ethyl)-amide]
0.85 | C[C@@H](NC(=O)c1c[nH]c2ncc(-c3nn(C)c4ccsc34)nc12)C(=O)N1CC(C#N)C1 [Example I-99, 2-(1-Methyl-1H-thieno[3,2-c]pyrazol-3-yl)-5H-pyrrolo[2,3-b]pyrazine-7-carboxylic acid [(R)-2-(3-cyano-azetidin-1-yl)-1-methyl-2-oxo-ethyl]-amide]
5.26 | Cn1nc(-c2cnc3[nH]cc(C(=O)NC4CCCC4)c3n2)c2ccc(Cl)cc21 [Example I-106, 2-(6-Chloro-1-methyl-1H-indazol-3-yl)-5H-pyrrolo[2,3-b]pyrazine-7-carboxylic acid cyclopentylamide]
7.05 | CC(C)NC(=O)c1c[nH]c2ncc(-c3nn(C)c4cc(Cl)ccc34)nc12 [Example I-108, 2-(6-Chloro-1-methyl-1H-indazol-3-yl)-5H-pyrrolo[2,3-b]pyrazine-7-carboxylic acid isopropylamide]
8.48 | Cn1nc(-c2cnc3[nH]cc(C(=O)NCC4CC4)c3n2)c2ccc(F)cc21 [Example I-117, 2-(6-Fluoro-1-methyl-1H-indazol-3-yl)-5H-pyrrolo[2,3-b]pyrazine-7-carboxylic acid cyclopropylmethyl-amide]
2.01 | C[C@@H](NC(=O)c1c[nH]c2ncc(-c3nn(C)c4cc(Cl)ccc34)nc12)C(=O)N1CC[C@H](F)C1 [Example I-118, 2-(6-Chloro-1-methyl-1H-indazol-3-yl)-5H-pyrrolo[2,3-b]pyrazine-7-carboxylic acid [(R)-2-((S)-3-fluoro-pyrrolidin-1-yl)-1-methyl-2-oxo-ethyl]-amide]
14.3 | CC(C)NC(=O)c1c[nH]c2ncc(-c3nn(CCCN(C)C)c4cc(Cl)cc(F)c34)nc12 [Example I-130, 2-[6-Chloro-1-(3-dimethylamino-propyl)-4-fluoro-1H-indazol-3-yl]-5H-pyrrolo[2,3-b]pyrazine-7-carboxylic acid isopropylamide]
56.7 | C[C@H](Cn1cccn1)NC(=O)c1c[nH]c2ncc(-c3nn(C)c4cc(F)ccc34)nc12 [Example I-133, 2-(6-Fluoro-1-methyl-1H-indazol-3-yl)-5H-pyrrolo[2,3-b]pyrazine-7-carboxylic acid ((R)-1-methyl-2-pyrazol-1-yl-ethyl)-amide]
132 | C[C@H](CNC(=O)c1c[nH]c2ncc(-c3nn(C)c4cc(F)ccc34)nc12)C(N)=O [Example I-137, 2-(6-Fluoro-1-methyl-1H-indazol-3-yl)-5H-pyrrolo[2,3-b]pyrazine-7-carboxylic acid ((R)-2-carbamoyl-propyl)-amide]

Reference: patent US8658646B2, “Pyrrolopyrazine kinase inhibitors” (Hoffmann-LaRoche Inc., priority 2011, dated 2014)
